Assay results from patent publication US9200067B2, “Molecular marker CUEDC2 protein for prognostic determination of breast cancer endocrinology therapy” (Biomedical Analysis Center of Academy of Military Medical …, priority 2011, dated 2015).
Entries after “also recorded” stand apart in the source; their conditions may differ.

Experiments:
[1] = system: MCF-7/vector or MCF-7/CUEDC2 cells; assay: Tumor formation in ovariectomized nude mice (mammary fat pad xenograft); assay type: in vivo; settings: tamoxifen sustained-release tablets subcutaneously, vs placebo
Procedure: 4-week-old female nude mice were purchased from Animal Laboratory Center of the Academy of Military Medical Sciences; the Cell Titer Glo Luminescent Cell Viability Assay was purchased from Promega Company; the Estrogen and tamoxifen sustained-release tablets were purchased from Innovative Research of America.
(§1) MCF-7 cells stably transfected with CUEDC2 were treated with different doses of tamoxifen, and then the cell growth was observed by a cell counting method. […] In order to eliminate nonspecific effects of over expression of CUEDC2 on cells growth, the inventors knocked down the CUEDC2 expression in the cells and did the same cell growth experiment. […] In order to verify the above conclusion, the inventors further conducted animal experiments. 5×10^6 MCF-7/vector or MCF-7/CUEDC2 cells were injected into the mammary fat pad of ovariectomized nude mice, and estrogen sustained-release tablets were embedded subcutaneously. When tumors grew to 100-150 mm^3, nude mice were divided into two groups randomly, and embedded with tamoxifen or control placebo pills subcutaneously.

[2] = system: MCF-7 cells stably transfected with CUEDC2; assay: Cell growth by cell counting under different doses of tamoxifen; assay type: cell-based
Procedure: as §1

MCF-7 cells = assay: Crystal violet colony-formation assay; assay type: cell-based

CC/C(=C(\c1ccccc1)c1ccc(OCCN(C)C)cc1)c1ccccc1 [tamoxifen]
tumor growth ([1]; MCF-7/CUEDC2 cells in nude mice): could not effectively inhibit; also recorded: cannot inhibit tumor growth effectively
tumor growth ([1]; MCF-7/vector cells in nude mice): significantly inhibit
sensitivity of cell growth to tamoxifen ([2]; MCF-7 cells over expressing CUEDC2, different doses of tamoxifen): insensitive
sensitivity of cells to tamoxifen after CUEDC2 knockdown ([2]; MCF-7 cells over expressing CUEDC2 knocked down by CUEDC2 siRNA): restored the sensitivity
sensitivity to tamoxifen-induced cell death (MCF-7 cells; cells over expressing CUEDC2): insensitive
sensitivity to tamoxifen-induced cell death (MCF-7 cells; control MCF-7 empty vector cells): sensitive
